Results published in patent US20240043420A1, “7-AZAINDOLE COMPOUNDS FOR INHIBITION OF BCR-ABL TYROSINE KINASES” (EnLiven Therapeutics, Inc., priority 2020, published 2024).

Columns and labels:
ABL1 = target: T1, ABL1 (Homo sapiens, UniProt P00519); experiment: Luminescence-based ABL kinase assay (ADP-Glo, 300 μM ATP); type: biochemical
T1 construct: purchased Carna Biosciences
In short: (§1)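 ABL1 (3.325 nM in the enzyme solution) was preincubated with compound for 30 min at RT in HEPES pH 7.5 buffer with MgCl2, EGTA, DTT, BSA and Brij-35. Adding Peptide 2 and ATP (6 μM and 1.2 mM in the start solution) began a 90 min RT reaction. ADP-Glo luminescence gave % activity and IC50.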

HL60 cells = experiment: HL60 cell proliferation assay (CellTiter-Glo); type: cell-based; conditions: Homo sapiens, HL-60, 72 h, CellTiter-Glo viability, read-out: Cell Line (IC50, nM) HL60
In short: (§2)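 Cells in IMDM/10% FBS seeded at 2,000 (K562) or 1,500 (HL60) per well, exposed to serially diluted compounds for 72 h at 37 °C, 5% CO2. Viability by CellTiter-Glo luminescence, normalized between DMSO (high) and cell-free media (low) controls.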

ABL1 (T315I) = ABL1 (T315I) (Homo sapiens, UniProt P00519, T315I); experiment: Luminescence-based ABL kinase assay (ADP-Glo, 300 μM ATP), T315I mutant; type: biochemical
In short: as §1

K562 cells = experiment: K562 cell proliferation assay (CellTiter-Glo); type: cell-based; conditions: Homo sapiens, K562, 72 h, CellTiter-Glo viability, read-out: Cell Line (IC50, nM) K562
In short: as §2

SMILES	IC50 (ABL1) [nM]	IC50 (HL60 cells) [nM]	IC50 (ABL1 (T315I)) [nM]	IC50 (K562 cells) [nM]
CCNC(=O)Nc1ccc2c(-c3ccccc3OC)c[nH]c2n1 [Compound 103, 3-ethyl-1-[3-(2-methoxyphenyl)-1H-pyrrolo[2,3-b]pyridin-6-yl]urea]	99.2	> 10000	32.5	751
CCN1CCN(CCNC(=O)Nc2ccc3c(-c4ccccc4OC)c[nH]c3n2)CC1 [Compound 109, 1-[2-(4-ethylpiperazin-1-yl)ethyl]-3-[3-(2-methoxyphenyl)-1H-pyrrolo[2,3-b]pyridin-6-yl]urea]	39	> 10000	7.08	278
COc1ccccc1-c1c[nH]c2nc(NC(=O)NCCC3CCN(C4COC4)CC3)ccc12 [Compound 110, 3-[3-(2-methoxyphenyl)-1H-pyrrolo[2,3-b]pyridin-6-yl]-1-[2-[1-(oxetan-3-yl)piperidin-4-yl]ethyl]urea]	74.8	> 10000	18.2	382
COc1nccc(C)c1-c1n[nH]c2nc(NC(=O)[C@@H]3C[C@@H]3F)ccc12 [Compound 112, (1S,2S)-2-fluoro-N-[3-(2-methoxy-4-methylpyridin-3-yl)-1H-pyrazolo[3,4-b]pyridin-6-yl]cyclopropane-1-carboxamide]	271	> 10000	157	1860
COc1c(-c2c[nH]c3nc(NC(=O)[C@@H]4C[C@@H]4F)ccc23)ccn2ncnc12 [Compound 115, (1S,2S)-2-fluoro-N-(3-[8-methoxy-[1,2,4]triazolo[1,5-a]pyridin-7-yl]-1H-pyrrolo[2,3-b]pyridin-6-yl)cyclopropane-1-carboxamide]	124	> 10000	151	382
COc1ccccc1-c1c[nH]c2nc(NC(=O)NCCN3CCNCC3)ccc12 [Compound 121, 3-[3-(2-methoxyphenyl)-1H-pyrrolo[2,3-b]pyridin-6-yl]-1-[2-(piperazin-1-yl)ethyl]urea]	31.8	> 10000	5.98	365
COc1ccccc1-c1c[nH]c2nc(NC(=O)NCCOCCN(C)C)ccc12 [Compound 124, 3-[2-[2-(dimethylamino)ethoxy]ethyl]-1-[3-(2-methoxyphenyl)-1H-pyrrolo[2,3-b]pyridin-6-yl]urea]	317	> 10000	30.6	359
O=C(Nc1ccc2c(-c3cccnc3OCC(F)(F)F)c[nH]c2n1)[C@@H]1C[C@@H]1F [Compound 126, (1S,2S)-2-fluoro-N-(3-(2-(2,2,2-trifluoroethoxy)pyridin-3-yl)-1H-pyrrolo[2,3-b]pyridin-6-yl)cyclopropane-1-carboxamide]	2580	> 10000	3860	2010
CNCCCNC(=O)Nc1ccc2c(-c3c(OC)cccc3OC)c[nH]c2n1 [Compound 130, 1-[3-(2,6-dimethoxyphenyl)-1H-pyrrolo[2,3-b]pyridin-6-yl]-3-[3-(methylamino)propyl]urea]	67	> 10000	33.7	169
COc1cccc(OC)c1-c1c[nH]c2nc(NC(=O)NCCN(C)C)ccc12 [Compound 132, 1-[3-(2,6-dimethoxyphenyl)-1H-pyrrolo[2,3-b]pyridin-6-yl]-3-[2-(dimethylamino)ethyl]urea]	143	> 10000	97.5	234
COc1ccnc(OC)c1-c1c[nH]c2nc(NC(=O)NCCN3CCNCC3)ccc12 [Compound 137, 3-[3-(2,4-dimethoxypyridin-3-yl)-1H-pyrrolo[2,3-b]pyridin-6-yl]-1-[2-(piperazin-1-yl)ethyl]urea]	36	> 10000	40.6	733
COc1ncnc(OC)c1-c1c[nH]c2nc(NC(=O)NCCN3CCNCC3)ccc12 [Compound 138, 3-[3-(4,6-dimethoxypyrimidin-5-yl)-1H-pyrrolo[2,3-b]pyridin-6-yl]-1-[2-(piperazin-1-yl)ethyl]urea]	51.2	> 10000	140	527

Now those with a lower IC50 (ABL1), led by results:

IC50 (ABL1) [nM]	IC50 (HL60 cells) [nM]	IC50 (ABL1 (T315I)) [nM]	IC50 (K562 cells) [nM]	SMILES
14.9	> 10000	25.7	129	COc1cc(F)ccc1-c1n[nH]c2nc(NC(=O)[C@@H]3C[C@@H]3F)ccc12 [Compound 99, (1S,2S)-2-fluoro-N-[3-(4-fluoro-2-methoxyphenyl)-1H-pyrazolo[3,4-b]pyridin-6-yl]cyclopropane-1-carboxamide]
16.4	> 10000	15.3	94.2	[2H]C([2H])([2H])Oc1ccccc1-c1n[nH]c2nc(NC(=O)[C@@H]3C[C@@H]3F)ccc12 [Compound 101, (1S,2S)-2-fluoro-N-(3-(2-(methoxy-d3)phenyl)-1H-pyrazolo[3,4-b]pyridin-6-yl)cyclopropane-1-carboxamide]
12.5	> 10000	17.8	48	COc1ncnc(OC)c1-c1c[nH]c2nc(NC(=O)[C@@H]3C[C@@H]3F)ccc12 [Compound 102, (1S,2S)—N-[3-(4,6-dimethoxypyrimidin-5-yl)-1H-pyrrolo[2,3-b]pyridin-6-yl]-2-fluorocyclopropane-1-carboxamide]
14.3	> 10000	151	321	COc1cc2ncnn2cc1-c1c[nH]c2nc(NC(=O)[C@@H]3C[C@@H]3F)ccc12 [Compound 111, (1S,2S)-2-fluoro-N-(3-(7-methoxy-[1,2,4]triazolo[1,5-a]pyridin-6-yl)-1H-pyrrolo[2,3-b]pyridin-6-yl)cyclopropane-1-carboxamide]
20.9	> 10000	15.9	174	COc1nccc(C)c1-c1c[nH]c2nc(NC(=O)[C@@H]3C[C@@H]3F)ccc12 [Compound 113, (1S,2S)-2-fluoro-N-[3-(2-methoxy-4-methylpyridin-3-yl)-1H-pyrrolo[2,3-b]pyridin-6-yl]cyclopropane-1-carboxamide]
3.73	> 10000	1.48	24.4	COc1cccc(OC)c1-c1c[nH]c2nc(NC(=O)[C@@H]3C[C@@H]3F)ccc12 [Compound 118, (1S,2S)—N-[3-(2,6-dimethoxyphenyl)-1H-pyrrolo[2,3-b]pyridin-6-yl]-2-fluorocyclopropane-1-carboxamide]
4.67	> 10000	2.57	32.2	COc1ccc(F)c(OC)c1-c1c[nH]c2nc(NC(=O)[C@@H]3C[C@@H]3F)ccc12 [Compound 119, (1S,2S)-2-fluoro-N-[3-(3-fluoro-2,6-dimethoxyphenyl)-1H-pyrrolo[2,3-b]pyridin-6-yl]cyclopropane-1-carboxamide]
22.2	> 10000	39.5	104	COc1ncc(F)c(OC)c1-c1c[nH]c2nc(NC(=O)[C@H]3C[C@H]3F)ccc12 [Compound 125, (1R,2R)-2-fluoro-N-[3-(5-fluoro-2,4-dimethoxypyridin-3-yl)-1H-pyrrolo[2,3-b]pyridin-6-yl]cyclopropane-1-carboxamide]
22.1	> 10000	0.745	100	O=C(Nc1ccc2c(-c3c(F)cccc3OC3CC3)c[nH]c2n1)[C@@H]1C[C@@H]1F [Compound 127, (1S,2S)—N-[3-(2-cyclopropoxy-6-fluorophenyl)-1H-pyrrolo[2,3-b]pyridin-6-yl]-2-fluorocyclopropane-1-carboxamide]
27.4	> 10000	54.5	333	O=C(NCCN1CCNCC1)Nc1ccc2c(-c3ccccc3OC3CC3)n[nH]c2n1 [Compound 136, 3-[3-(2-cyclopropoxyphenyl)-1H-pyrazolo[3,4-b]pyridin-6-yl]-1-[2-(piperazin-1-yl)ethyl]urea]
18.6	> 10000	16.8	1380	COc1cc2ncsc2cc1-c1c[nH]c2nc(NC(=O)NCCN3CCNCC3)ccc12 [Compound 139, 3-[3-(5-methoxy-1,3-benzothiazol-6-yl)-1H-pyrrolo[2,3-b]pyridin-6-yl]-1-[2-(piperazin-1-yl)ethyl]urea; bis(formic acid)]
14.6	> 10000	14.3	34.5	COc1nc(C)nc(OC)c1-c1c[nH]c2nc(NC(=O)[C@@H]3C[C@@H]3F)ccc12 [Compound 142, (1S,2S)—N-(3-(4,6-dimethoxy-2-methylpyrimidin-5-yl)-1H-pyrrolo[2,3-b]pyridin-6-yl)-2-fluorocyclopropane-1-carboxamide]
4.65	> 10000	1.37	8.67	COc1ncnc(OC2CC2)c1-c1c[nH]c2nc(NC(=O)[C@@H]3C[C@@H]3F)ccc12 [Compound 153, (1S,2S)—N-[3-(4-cyclopropoxy-6-methoxypyrimidin-5-yl)-1H-pyrrolo[2,3-b]pyridin-6-yl]-2-fluorocyclopropane-1-carboxamide]
6.71	> 10000	8.81	30.8	COc1nccc(OC2CC2)c1-c1c[nH]c2nc(NC(=O)[C@@H]3C[C@H]3OCCN(C)C)ccc12 [Compound 253]
